Data: patent US9963696B2, “Method for screening mutant microorganism overproducing target metabolite using synthetic suicide genetic circuit” (Korea University Research and Business Foundation, priority 2014, dated 2018)

How the values were obtained:
FMN ribozyme = experiment: growth of yeast carrying the FMN suicide riboswitch with added or intracellularly produced FMN; assay type: cell-based, Saccharomyces cerevisiae
From the text: Using the same method as described in Example 1-1, a FMN ribozyme (Proc. Natl. Acad. Sci. USA Vol. 96, pp. 3584-3589, March 1999, “Engineering precision RNA molecular switches”)
Biochemistry was inserted into the 3′ UTR of the FCY1 gene (NC_001148.4). In order to examine whether the suicide riboswitch operates properly, an experiment for examining whether the growth rate of cells having the suicide riboswitch introduced therein changes depending on the concentration of FMN in the cells was performed.
Specifically, FMN was externally added to the culture medium.
In addition, the FMN1 gene was cloned into a p413GPD plasmid, which was then transformed into a strain having the FMN suicide riboswitch introduced therein so that FMN was produced in the cells. Also, the cells were treated with fluorocytosine. […] In addition, it could be seen that the absorbance at 660 nm was high due to the production of FMN (FIG. 6c).

glmS ribozyme = experiment: growth of yeast carrying the glmS suicide riboswitch with externally added GlcN in the presence of fluorocytosine; assay type: cell-based, Saccharomyces cerevisiae
From the text: The gene fragment to be inserted was transformed into Saccharomyces cerevisiae BY4742. In order to examine whether the suicide riboswitch was inserted into the gene of the yeast, a colony selected on an SD-URA medium (2% glucose, 0.67% yeast nitrogen base without amino acids, 0.77 g/L CSM-URA dropout mixture) plate was selected. As a result, it could be seen that the glmS ribozyme was inserted into the 3′UTR (untranslated region) of FCY1 locus in the BY4742 strain.
In addition, in order to examine whether the suicide riboswitch operates properly, whether the growth rate of cells having the suicide riboswitch introduced therein changes depending on the concentration of GlcN6P in the cells was examined. In the presence of fluorocytosine, glucosamine (GlcN) was externally added to the culture medium so that it was converted to GlcN6P by intracellular hexokinase.
A BY4742 FGU strain and other strains, which have a suicide riboswitch introduced therein, were cultured in minimal media. For culture of BY4742 FGU, SD-URA medium supplemented with 5 mg/L of fluorocytosine was used. At 2 days after seeding, absorbance was used. To screen the GFA1 mutant library, medium supplemented with 10 mg/L of fluorocytosine was used, and to screen the HAD phosphatase library, medium supplemented with 20 mg/L of fluorocytosine was used (FIG. 2c).

[1] = FMN produced in the cells from FMN1 on p413GPD plasmid, treated with fluorocytosine

| SMILES | absorbance (FMN ribozyme; FMN externally added to culture medium, increasing concentration) | absorbance at 660 nm (FMN ribozyme; [1]) | growth rate of the cells (FMN ribozyme; [1]) | growth rate of cells having the suicide riboswitch (glmS ribozyme; GlcN externally added to culture medium, in the presence of fluorocytosine, increasing GlcN6P concentration) | absorbance at 660 nm (glmS ribozyme; various concentrations of added GlcN) |
| --- | --- | --- | --- | --- | --- |
| Cc1cc2nc3c(=O)[nH]c(=O)nc-3n(C[C@H](O)[C@H](O)[C@H](O)COP(=O)(O)O)c2cc1C [FMN, flavin mononucleotide] | the absorbance also increased | high | the growth rate of the cells was high |  |  |
| N[C@H]1C(O)O[C@H](CO)[C@@H](O)[C@@H]1O (some centres unmarked) [GlcN, glucosamine] |  |  |  | the growth rate of the cells increased | changed depending on the concentration of GlcN |
